According to PubChem BioAssay (NCI):
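GI50 marks 50% less growth. Definition used: TGI = concentration required for complete inhibition of growth.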

Key:
Assay in all cases: NCI-60 cell line screen, 384-well format
[1] = test system: RPMI-8226 leukemia
[2] = test system: HCT-116 colon
[3] = test system: NCI-H23 lung
[4] = test system: MALME-3M melanoma
[5] = test system: SNB-19 CNS
[6] = test system: SF-268 CNS
[7] = test system: SK-MEL-2 melanoma
[8] = test system: EKVX NSCLC
[9] = test system: NCI-H522 lung
[10] = test system: LOX IMVI melanoma
[11] = test system: OVCAR-4 ovarian
[12] = test system: COLO 205 colon
[13] = test system: 786-0 renal

Row | Compound | GI50 [1] [µM] | TGI [1] [µM] | GI50 [2] [µM] | TGI [2] [µM] | GI50 [3] [µM] | TGI [3] [µM] | GI50 [4] [µM] | TGI [4] [µM] | GI50 [5] [µM] | TGI [5] [µM] | GI50 [6] [µM] | TGI [6] [µM] | GI50 [7] [µM] | TGI [7] [µM] | GI50 [8] [µM] | TGI [8] [µM] | GI50 [9] [µM] | TGI [9] [µM] | GI50 [10] [µM] | TGI [10] [µM] | other results
1 | Cc1cc(-c2nc(C(=O)Nc3cc4oc(N5CCOCC5)nc4nc3N3CC[C@@H](O)C3)co2)ccn1 | 15.5 | 39.4 | 19.4 | > 100 | 13.1 | 47.5 | 19.4 | > 100 | 20.4 | > 100 | 54.2 | > 100 | 15.5 | 41.6 | 14.2 | 71.2 | 4.32 | 22.7 | 39.3 | > 100 | GI50 [11]: 36.9 µM; TGI [11]: > 100 µM; GI50 [12]: 20.4 µM; TGI [12]: 50.2 µM; GI50 [13]: 43.4 µM; TGI [13]: > 100 µM
2 | C[C@@H](Oc1cc(-n2cnc3ccc(CN4CCN(C)CC4)cc32)sc1C(N)=O)c1ccccc1C(F)(F)F | 0.25 | 0.734 | 0.534 | 3.04 | 0.384 | 1.68 | 1.15 | 2.37 | 1.18 | 15 | 0.882 | 3.64 | 0.272 | 0.839 | 0.734 | 4.19 | 0.206 | 0.445 | 0.588 | 1.95 | GI50 [11]: 1.81 µM; TGI [11]: 10.2 µM; GI50 [12]: 0.256 µM; TGI [12]: 0.617 µM; GI50 [13]: 1.17 µM; TGI [13]: 2.73 µM
